Assay results taken from PubChem BioAssay AID290 (DTP/NCI, 2004).
Where “and” joins values, the source holds several entries; their conditions need not be identical. Equal entries are not always repeated. Records with an inconclusive call do not appear.

System: mice, P1798 lymphosarcoma sc, survival or tumor weight T/C
Test: NCI In Vivo Anticancer Drug Screen. Data for tumor model P1798 Lymphosarcoma (subcutaneous) in unknown mice
Description: The antitumor activity of compounds was measured in mice bearing transplantable tumors. Survival or tumor size were measured and the results are expressed as the measurement made in the treated group (T) divided by the measurement made in the vehicle treated control group (C). The tumor model used in this assay is P1798 Lymphosarcoma (subcutaneous) in unknown mice

[1] = endpoint: mean tumor weight, dose: 62.5 mg/kg/injection, schedule: Q01DX010 (ip), vehicle: carboxymethylcellulose (CMC), higher = larger tumour
[2] = endpoint: mean tumor weight, dose: 125.0 mg/kg/injection, schedule: Q01DX010 (ip), vehicle: carboxymethylcellulose (CMC), higher = larger tumour
[3] = endpoint: mean tumor weight, dose: 37.5 mg/kg/injection, schedule: Q01DX010 (ip), vehicle: carboxymethylcellulose (CMC), higher = larger tumour
[4] = endpoint: mean tumor weight, dose: 75.0 mg/kg/injection, schedule: Q01DX010 (ip), vehicle: carboxymethylcellulose (CMC), higher = larger tumour
[5] = endpoint: mean tumor weight, dose: 0.63 mg/kg/injection, schedule: Q01DX010 (ip), vehicle: saline, higher = larger tumour
[6] = endpoint: mean tumor weight, dose: 1.25 mg/kg/injection, schedule: Q01DX010 (ip), vehicle: saline, higher = larger tumour
[7] = endpoint: mean tumor weight, dose: 2.5 mg/kg/injection, schedule: Q01DX010 (ip), vehicle: saline, higher = larger tumour
[8] = endpoint: mean tumor weight, dose: 5.0 mg/kg/injection, schedule: Q01DX010 (ip), vehicle: saline, higher = larger tumour
[9] = endpoint: mean tumor weight, dose: 250.0 mg/kg/injection, schedule: Q01DX010 (ip), vehicle: carboxymethylcellulose (CMC), higher = larger tumour
[10] = endpoint: mean tumor weight, dose: 5.0 mg/kg/injection, schedule: Q01DX010 (ip), vehicle: carboxymethylcellulose (CMC), higher = larger tumour
[11] = endpoint: mean tumor weight, dose: 10.0 mg/kg/injection, schedule: Q01DX010 (ip), vehicle: carboxymethylcellulose (CMC), higher = larger tumour

## CN(/N=N/N(C)c1ccccc1)c1ccccc1
endpoint: mean tumor weight, dose: 15.6 mg/kg/injection, schedule: Q01DX010 (ip), vehicle: carboxymethylcellulose (CMC), higher = larger tumour
  T/C: 59 % of control
endpoint: mean tumor weight, dose: 31.3 mg/kg/injection, schedule: Q01DX010 (ip), vehicle: carboxymethylcellulose (CMC), higher = larger tumour
  T/C: 44 % of control
[1]
  T/C: 39 % of control
[2]
  T/C: 58 % of control

## CCOC(N)=O
endpoint: mean tumor weight, dose: 250.0 mg/kg/injection, schedule: Q01DX010 (ip), vehicle: saline, higher = larger tumour
  T/C: 70 % of control and 76 % of control

## CC/C(=C(/CC)c1ccc(O)cc1)c1ccc(O)cc1
endpoint: mean tumor weight, dose: 62.5 mg/kg/injection, schedule: Q01DX010 (sc), vehicle: steriod suspending solution, higher = larger tumour
  T/C: 64 % of control
endpoint: mean tumor weight, dose: 125.0 mg/kg/injection, schedule: Q01DX010 (sc), vehicle: steriod suspending solution, higher = larger tumour
  T/C: 83 % of control
endpoint: mean tumor weight, dose: 500.0 mg/kg/injection, schedule: Q01DX010 (sc), vehicle: steriod suspending solution, higher = larger tumour
  T/C: 39 % of control

## O=C1CCC(N2C(=O)c3ccccc3C2=O)C(=O)N1 (centres undefined)
endpoint: mean tumor weight, dose: 18.75 mg/kg/injection, schedule: Q01DX010 (ip), vehicle: carboxymethylcellulose (CMC), higher = larger tumour
  T/C: 122 % of control
[3]
  T/C: 68 % of control
[4]
  T/C: 92 % of control
endpoint: mean tumor weight, dose: 150.0 mg/kg/injection, schedule: Q01DX010 (ip), vehicle: carboxymethylcellulose (CMC), higher = larger tumour
  T/C: 83 % of control

## CCC(=O)O[C@H]1CC[C@H]2[C@@H]3CCC4=CC(=O)CC[C@]4(C)[C@H]3CC[C@]12C
endpoint: mean tumor weight, dose: 150.0 mg/kg/injection, schedule: Q01DX010 (sc), vehicle: steriod suspending solution, higher = larger tumour
  T/C: 108 % of control
endpoint: mean tumor weight, dose: 300.0 mg/kg/injection, schedule: Q01DX010 (sc), vehicle: steriod suspending solution, higher = larger tumour
  T/C: 116 % of control
endpoint: mean tumor weight, dose: 600.0 mg/kg/injection, schedule: Q01DX010 (sc), vehicle: steriod suspending solution, higher = larger tumour
  T/C: 104 % of control

## CN(Cc1cnc2nc(N)nc(N)c2n1)c1ccc(C(=O)N[C@@H](CCC(=O)O)C(=O)O)cc1
endpoint: mean tumor weight, dose: 0.15 mg/kg/injection, schedule: Q01DX010 (ip), vehicle: other, higher = larger tumour
  T/C: 79 % of control and 101 % of control
endpoint: mean tumor weight, dose: 0.16 mg/kg/injection, schedule: Q01DX010 (ip), vehicle: other, higher = larger tumour
  T/C: 118 % of control
endpoint: mean tumor weight, dose: 0.39 mg/kg/injection, schedule: Q01DX010 (sc), vehicle: other, higher = larger tumour
  T/C: 28 % of control
endpoint: mean tumor weight, dose: 0.5 mg/kg/injection, schedule: Q01DX011 (ip), vehicle: carboxymethylcellulose (CMC), higher = larger tumour
  T/C: 33 % of control
endpoint: mean tumor weight, dose: 0.65 mg/kg/injection, schedule: Q01DX010 (sc), vehicle: other, higher = larger tumour
  T/C: 50 % of control
endpoint: mean tumor weight, dose: 1.0 mg/kg/injection, schedule: Q01DX011 (ip), vehicle: carboxymethylcellulose (CMC), higher = larger tumour
  T/C: 1 % of control
endpoint: mean tumor weight, dose: 1.08 mg/kg/injection, schedule: Q01DX010 (sc), vehicle: other, higher = larger tumour
  T/C: 18 % of control
endpoint: mean tumor weight, dose: 11.0 mg/kg/injection, schedule: Q01DX001 (ip), vehicle: carboxymethylcellulose (CMC), higher = larger tumour
  T/C: 78 % of control
endpoint: mean tumor weight, dose: 22.0 mg/kg/injection, schedule: Q01DX001 (ip), vehicle: carboxymethylcellulose (CMC), higher = larger tumour
  T/C: 74 % of control
endpoint: mean tumor weight, dose: 43.0 mg/kg/injection, schedule: Q01DX001 (ip), vehicle: carboxymethylcellulose (CMC), higher = larger tumour
  T/C: 44 % of control
endpoint: median survival time, dose: 0.31 mg/kg/injection, schedule: Q01DX010 (ip), vehicle: sodium bicarbonate, higher = longer survival
  T/C: 101 % of control
endpoint: median survival time, dose: 0.62 mg/kg/injection, schedule: Q01DX010 (ip), vehicle: sodium bicarbonate, higher = longer survival
  T/C: 103 % of control
endpoint: median survival time, dose: 0.63 mg/kg/injection, schedule: Q01DX010 (ip), vehicle: sodium bicarbonate, higher = longer survival
  T/C: 103 % of control
endpoint: median survival time, dose: 1.25 mg/kg/injection, schedule: Q01DX010 (ip), vehicle: sodium bicarbonate, higher = longer survival
  T/C: 113 % of control
endpoint: median survival time, dose: 2.5 mg/kg/injection, schedule: Q01DX010 (ip), vehicle: sodium bicarbonate, higher = longer survival
  T/C: 33 % of control
endpoint: median survival time, dose: 4.0 mg/kg/injection, schedule: Q04DX007 (ip), vehicle: sodium bicarbonate, higher = longer survival
  T/C: 76 % of control
endpoint: median survival time, dose: 5.0 mg/kg/injection, schedule: Q01DX010 (ip), vehicle: sodium bicarbonate, higher = longer survival
  T/C: 37 % of control
endpoint: median survival time, dose: 8.0 mg/kg/injection, schedule: Q04DX007 (ip), vehicle: sodium bicarbonate, higher = longer survival
  T/C: 76 % of control
endpoint: median survival time, dose: 16.0 mg/kg/injection, schedule: Q04DX007 (ip), vehicle: saline, higher = longer survival
  T/C: 161 % of control
endpoint: median survival time, dose: 16.0 mg/kg/injection, schedule: Q04DX007 (ip), vehicle: sodium bicarbonate, higher = longer survival
  T/C: 74 % of control
endpoint: median survival time, dose: 32.0 mg/kg/injection, schedule: Q04DX007 (ip), vehicle: saline, higher = longer survival
  T/C: 170 % of control
endpoint: median survival time, dose: 32.0 mg/kg/injection, schedule: Q04DX007 (ip), vehicle: sodium bicarbonate, higher = longer survival
  T/C: 29 % of control
endpoint: median survival time, dose: 64.0 mg/kg/injection, schedule: Q04DX007 (ip), vehicle: sodium bicarbonate, higher = longer survival
  T/C: 25 % of control

## Cc1cc(N(CCCl)CCCl)ccc1N=Nc1ccccc1C(=O)O
endpoint: mean tumor weight, dose: 3.75 mg/kg/injection, schedule: Q01DX010 (ip), vehicle: carboxymethylcellulose (CMC), higher = larger tumour
  T/C: 40 % of control
endpoint: mean tumor weight, dose: 7.5 mg/kg/injection, schedule: Q01DX010 (ip), vehicle: carboxymethylcellulose (CMC), higher = larger tumour
  T/C: 26 % of control

## Nc1nc(SCc2ccccc2)c2[nH]cnc2n1
endpoint: mean tumor weight, dose: 4.7 mg/kg/injection, schedule: Q01DX010 (ip), vehicle: carboxymethylcellulose (CMC), higher = larger tumour
  T/C: 42 % of control
endpoint: mean tumor weight, dose: 9.4 mg/kg/injection, schedule: Q01DX010 (ip), vehicle: carboxymethylcellulose (CMC), higher = larger tumour
  T/C: 51 % of control

## COC1=C(N)C(=O)c2nc(-c3nc(C(=O)O)c(C)c(-c4ccc(OC)c(OC)c4O)c3N)ccc2C1=O
endpoint: mean tumor weight, dose: 0.05 mg/kg/injection, schedule: Q01DX010 (ip), vehicle: other, higher = larger tumour
  T/C: 65 % of control
endpoint: mean tumor weight, dose: 0.1 mg/kg/injection, schedule: Q01DX010 (ip), vehicle: other, higher = larger tumour
  T/C: 39 % of control

## NC(=O)c1ccc(N)nc1
[5]
  T/C: 71 % of control
[6]
  T/C: 82 % of control
[7]
  T/C: 52 % of control
[8]
  T/C: 21 % of control

## N[C@@H](Cc1ccc(N(CCCl)CCCl)cc1)C(=O)O
[6]
  T/C: 49 % of control
[7]
  T/C: 29 % of control
endpoint: mean tumor weight, dose: 4.0 mg/kg/injection, schedule: Q01DX011 (ip), vehicle: carboxymethylcellulose (CMC), higher = larger tumour
  T/C: 13 % of control
[8]
  T/C: 16 % of control
endpoint: median survival time, dose: 0.75 mg/kg/injection, schedule: Q01DX010 (sc), vehicle: saline, higher = longer survival
  T/C: 112 % of control
endpoint: median survival time, dose: 1.5 mg/kg/injection, schedule: Q01DX010 (sc), vehicle: saline, higher = longer survival
  T/C: 104 % of control
endpoint: median survival time, dose: 3.0 mg/kg/injection, schedule: Q01DX010 (sc), vehicle: saline, higher = longer survival
  T/C: 75 % of control
endpoint: median survival time, dose: 6.0 mg/kg/injection, schedule: Q01DX010 (sc), vehicle: saline, higher = longer survival
  T/C: 52 % of control
endpoint: median survival time, dose: 12.0 mg/kg/injection, schedule: Q01DX010 (sc), vehicle: saline, higher = longer survival
  T/C: 26 % of control

## O=CCC(O)C(O)C(O)CO (centres undefined)
endpoint: mean tumor weight, dose: 16.0 mg/kg/injection, schedule: Q01DX010 (ip), vehicle: carboxymethylcellulose (CMC), higher = larger tumour
  T/C: 67 % of control
endpoint: mean tumor weight, dose: 31.2 mg/kg/injection, schedule: Q01DX010 (ip), vehicle: carboxymethylcellulose (CMC), higher = larger tumour
  T/C: 74 % of control
[1]
  T/C: 70 % of control
[2]
  T/C: 36 % of control and 61 % of control
[9]
  T/C: 44 % of control
endpoint: mean tumor weight, dose: 500.0 mg/kg/injection, schedule: Q01DX010 (ip), vehicle: carboxymethylcellulose (CMC), higher = larger tumour
  T/C: 42 % of control
endpoint: mean tumor weight, dose: 1000.0 mg/kg/injection, schedule: Q01DX010 (ip), vehicle: carboxymethylcellulose (CMC), higher = larger tumour
  T/C: 19 % of control

## Clc1ncnc2nc[nH]c12
endpoint: mean tumor weight, dose: 31.25 mg/kg/injection, schedule: Q01DX010 (ip), vehicle: carboxymethylcellulose (CMC), higher = larger tumour
  T/C: 106 % of control
[1]
  T/C: 95 % of control
[2]
  T/C: 92 % of control
[9]
  T/C: 79 % of control

## Nc1ncnc2c1ncn2C1OC(CO)CC1O (centres undefined)
[3]
  T/C: 111 % of control
[4]
  T/C: 85 % of control

## S=P(N1CC1)(N1CC1)N1CC1
[5]
  T/C: 95 % of control
[6]
  T/C: 64 % of control
[7]
  T/C: 24 % of control
endpoint: median survival time, dose: 0.75 mg/kg/injection, schedule: Q01DX010 (sc), vehicle: water, higher = longer survival
  T/C: 97 % of control
endpoint: median survival time, dose: 1.5 mg/kg/injection, schedule: Q01DX010 (sc), vehicle: water, higher = longer survival
  T/C: 105 % of control
endpoint: median survival time, dose: 3.0 mg/kg/injection, schedule: Q01DX010 (sc), vehicle: water, higher = longer survival
  T/C: 103 % of control
endpoint: median survival time, dose: 6.0 mg/kg/injection, schedule: Q01DX010 (sc), vehicle: water, higher = longer survival
  T/C: 47 % of control
endpoint: median survival time, dose: 12.0 mg/kg/injection, schedule: Q01DX010 (sc), vehicle: water, higher = longer survival
  T/C: 27 % of control

## N#[N+]c1cnc([O-])[nH]c1=O
[10]
  T/C: 105 % of control
[11]
  T/C: 47 % of control

## CC(CCC(C)OS(C)(=O)=O)OS(C)(=O)=O (centres undefined)
[10]
  T/C: 72 % of control
[11]
  T/C: 93 % of control
endpoint: mean tumor weight, dose: 20.0 mg/kg/injection, schedule: Q01DX010 (ip), vehicle: carboxymethylcellulose (CMC), higher = larger tumour
  T/C: 102 % of control
endpoint: mean tumor weight, dose: 40.0 mg/kg/injection, schedule: Q01DX010 (ip), vehicle: carboxymethylcellulose (CMC), higher = larger tumour
  T/C: 83 % of control
